# Measurements published in US20210121833A1, “Producing Homogeneous Metastable Solutions from Heterogeneous Non-condensed Solutes And Liquid Solvents” (priority 2019, published 2021).
# How the values were obtained:
# [1] = system: wounds and lesions; assay: Baths with oxygen saturated metastable solution, preliminary animal studies; type: in vivo; conditions: at least 30 mg/l concentration of oxygen
# [2] = cited from earlier work
smiles,measurement,setting,value
O=O [oxygen],benefits of healing,[1],Benefits of healing have been seen
same,fully saturated DO level,[2]; STP,38 mg/L
same,solubility limit of oxygen,"[2]; atmospheric conditions, partial pressure in air of 0.21 atm",less than 10 mg/l
